{
  "source": "ChEMBL document CHEMBL1201862",
  "about": "“PubChem BioAssay data set” (2004)",
  "assay_in_all_cases": "growth of human tumour cells (NCI), 48 h",
  "key": {"CAKI-1": {"tested_on": "CAKI-1"}, "HOP-62": {"tested_on": "HOP-62"}, "UO-31": {"tested_on": "UO-31"}, "DMS-273": {"tested_on": "DMS-273"}, "SK-OV-3": {"tested_on": "SK-OV-3"}, "OVCAR-3": {"tested_on": "OVCAR-3"}, "SR": {"tested_on": "SR"}, "SF-268": {"tested_on": "SF-268"}, "SK-MEL-28": {"tested_on": "SK-MEL-28"}, "RPMI-8226": {"tested_on": "RPMI-8226"}, "NCI/ADR-RES": {"tested_on": "NCI/ADR-RES"}, "SNB-19": {"tested_on": "SNB-19"}, "ACHN": {"tested_on": "ACHN"}, "PC-3": {"tested_on": "PC-3"}, "M14": {"tested_on": "M14"}, "MDA-N": {"tested_on": "MDA-N"}, "OVCAR-4": {"tested_on": "OVCAR-4"}, "SF-539": {"tested_on": "SF-539"}, "HCC 2998": {"tested_on": "HCC 2998"}},
  "note": "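Five compound concentrations were applied to cells in 96-well plates for 48 hours; endpoints were derived by simple linear interpolation of the resulting dose-response curve. GI50: concentration for 50% inhibition of growth.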 Active and inactive are the calls of the source. Cut-off read from the data, not from the text of the source: active = GI50 up to about 1.1 µM and inactive = higher.",
  "data": [
    {"smiles": "CC1=CC2=C(OCO1)C(=O)c1ccccc1C2=O", "values": [
      {"measurement": "GI50", "setting": "CAKI-1", "result": "8.39 µM (inactive)"},
      {"measurement": "GI50", "setting": "HOP-62", "result": "6.87 µM (inactive)"},
      {"measurement": "GI50", "setting": "UO-31", "result": "7.94 µM (inactive)"},
      {"measurement": "GI50", "setting": "DMS-273", "result": "10.5 µM (inactive)"},
      {"measurement": "GI50", "setting": "SK-OV-3", "result": "13.3 µM (inactive)"},
      {"measurement": "GI50", "setting": "OVCAR-3", "result": "5.4 µM (inactive)"},
      {"measurement": "GI50", "setting": "SR", "result": "7.82 µM (inactive)"},
      {"measurement": "GI50", "setting": "SF-268", "result": "7.5 µM (inactive)"},
      {"measurement": "GI50", "setting": "SK-MEL-28", "result": "4.86 µM (inactive)"},
      {"measurement": "GI50", "setting": "RPMI-8226", "result": "4.52 µM (inactive)"},
      {"measurement": "GI50", "setting": "NCI/ADR-RES", "result": "3.31 µM (inactive)"},
      {"measurement": "GI50", "setting": "SNB-19", "result": "9.59 µM (inactive)"},
      {"measurement": "GI50", "setting": "ACHN", "result": "3.76 µM (inactive)"},
      {"measurement": "GI50", "setting": "PC-3", "result": "3.18 µM (inactive)"},
      {"measurement": "GI50", "setting": "M14", "result": "4.73 µM (inactive)"},
      {"measurement": "GI50", "setting": "MDA-N", "result": "0.408 µM (active)"},
      {"measurement": "GI50", "setting": "OVCAR-4", "result": "3.73 µM (inactive)"},
      {"measurement": "GI50", "setting": "SF-539", "result": "6.14 µM (inactive)"},
      {"measurement": "GI50", "setting": "HCC 2998", "result": "30.5 µM (inactive)"}
    ]},
    {"smiles": "C=C1C(=O)C23C(O)CC4C(C)(C)CCC(O)C4(C)C2CC(OC(C)=O)C1[C@H]3O", "note": "(some centres not stated)", "values": [
      {"measurement": "GI50", "setting": "CAKI-1", "result": "2.37 µM (inactive)"},
      {"measurement": "GI50", "setting": "HOP-62", "result": "14.7 µM (inactive)"},
      {"measurement": "GI50", "setting": "UO-31", "result": "15.3 µM (inactive)"},
      {"measurement": "GI50", "setting": "DMS-273", "result": "1.65 µM (inactive)"},
      {"measurement": "GI50", "setting": "SK-OV-3", "result": "17.3 µM (inactive)"},
      {"measurement": "GI50", "setting": "OVCAR-3", "result": "6.18 µM (inactive)"},
      {"measurement": "GI50", "setting": "SR", "result": "1.18 µM (inactive)"},
      {"measurement": "GI50", "setting": "SF-268", "result": "4.49 µM (inactive)"},
      {"measurement": "GI50", "setting": "SK-MEL-28", "result": "3.39 µM (inactive)"},
      {"measurement": "GI50", "setting": "RPMI-8226", "result": "0.869 µM (active)"},
      {"measurement": "GI50", "setting": "NCI/ADR-RES", "result": "15.3 µM (inactive)"},
      {"measurement": "GI50", "setting": "SNB-19", "result": "8.99 µM (inactive)"},
      {"measurement": "GI50", "setting": "ACHN", "result": "4.12 µM (inactive)"},
      {"measurement": "GI50", "setting": "PC-3", "result": "11.4 µM (inactive)"},
      {"measurement": "GI50", "setting": "M14", "result": "2.82 µM (inactive)"},
      {"measurement": "GI50", "setting": "MDA-N", "result": "7.87 µM (inactive)"},
      {"measurement": "GI50", "setting": "SF-539", "result": "3.5 µM (inactive)"},
      {"measurement": "GI50", "setting": "HCC 2998", "result": "4.06 µM (inactive)"}
    ]}
  ]
}
